Measured values as given in ChEMBL document CHEMBL5143537, “Quinazoline-based hydroxamic acid derivatives as dual histone methylation and deacetylation inhibitors for potential anticancer agents” (Bioorg Med Chem, 2022).

Assays:
Histone deacetylase 1 = Histone deacetylase 1 (Homo sapiens, UniProt Q13547); experiment: Inhibition of recombinant human HDAC1 expressed in baculovirus infection system using Ac-peptide-AMC as substrate preincubated for 15 mins followed by substrate addition and measured after 60 mins by fluorescence assay
Chain of Histone deacetylase 1 (Q13547 whole entry): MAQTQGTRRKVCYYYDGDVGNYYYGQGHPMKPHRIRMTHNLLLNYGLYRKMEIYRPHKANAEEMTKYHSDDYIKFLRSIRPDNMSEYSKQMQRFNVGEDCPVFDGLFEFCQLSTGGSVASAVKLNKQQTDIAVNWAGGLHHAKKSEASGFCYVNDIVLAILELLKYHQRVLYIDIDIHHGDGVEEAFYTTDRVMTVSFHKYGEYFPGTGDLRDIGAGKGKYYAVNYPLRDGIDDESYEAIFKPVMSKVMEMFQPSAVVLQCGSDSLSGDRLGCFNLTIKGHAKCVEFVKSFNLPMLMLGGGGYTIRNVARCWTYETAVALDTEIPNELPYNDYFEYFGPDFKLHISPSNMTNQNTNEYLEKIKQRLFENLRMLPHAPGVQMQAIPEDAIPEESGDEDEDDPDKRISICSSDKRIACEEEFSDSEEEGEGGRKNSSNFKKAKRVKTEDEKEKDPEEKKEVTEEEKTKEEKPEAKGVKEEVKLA

[1] = biological target: T1, Histone-lysine N-methyltransferase EHMT1 (Homo sapiens, UniProt Q9H9B1); experiment: Inhibition of GLP (unknown origin)
T1 sequence (Q9H9B1 whole entry): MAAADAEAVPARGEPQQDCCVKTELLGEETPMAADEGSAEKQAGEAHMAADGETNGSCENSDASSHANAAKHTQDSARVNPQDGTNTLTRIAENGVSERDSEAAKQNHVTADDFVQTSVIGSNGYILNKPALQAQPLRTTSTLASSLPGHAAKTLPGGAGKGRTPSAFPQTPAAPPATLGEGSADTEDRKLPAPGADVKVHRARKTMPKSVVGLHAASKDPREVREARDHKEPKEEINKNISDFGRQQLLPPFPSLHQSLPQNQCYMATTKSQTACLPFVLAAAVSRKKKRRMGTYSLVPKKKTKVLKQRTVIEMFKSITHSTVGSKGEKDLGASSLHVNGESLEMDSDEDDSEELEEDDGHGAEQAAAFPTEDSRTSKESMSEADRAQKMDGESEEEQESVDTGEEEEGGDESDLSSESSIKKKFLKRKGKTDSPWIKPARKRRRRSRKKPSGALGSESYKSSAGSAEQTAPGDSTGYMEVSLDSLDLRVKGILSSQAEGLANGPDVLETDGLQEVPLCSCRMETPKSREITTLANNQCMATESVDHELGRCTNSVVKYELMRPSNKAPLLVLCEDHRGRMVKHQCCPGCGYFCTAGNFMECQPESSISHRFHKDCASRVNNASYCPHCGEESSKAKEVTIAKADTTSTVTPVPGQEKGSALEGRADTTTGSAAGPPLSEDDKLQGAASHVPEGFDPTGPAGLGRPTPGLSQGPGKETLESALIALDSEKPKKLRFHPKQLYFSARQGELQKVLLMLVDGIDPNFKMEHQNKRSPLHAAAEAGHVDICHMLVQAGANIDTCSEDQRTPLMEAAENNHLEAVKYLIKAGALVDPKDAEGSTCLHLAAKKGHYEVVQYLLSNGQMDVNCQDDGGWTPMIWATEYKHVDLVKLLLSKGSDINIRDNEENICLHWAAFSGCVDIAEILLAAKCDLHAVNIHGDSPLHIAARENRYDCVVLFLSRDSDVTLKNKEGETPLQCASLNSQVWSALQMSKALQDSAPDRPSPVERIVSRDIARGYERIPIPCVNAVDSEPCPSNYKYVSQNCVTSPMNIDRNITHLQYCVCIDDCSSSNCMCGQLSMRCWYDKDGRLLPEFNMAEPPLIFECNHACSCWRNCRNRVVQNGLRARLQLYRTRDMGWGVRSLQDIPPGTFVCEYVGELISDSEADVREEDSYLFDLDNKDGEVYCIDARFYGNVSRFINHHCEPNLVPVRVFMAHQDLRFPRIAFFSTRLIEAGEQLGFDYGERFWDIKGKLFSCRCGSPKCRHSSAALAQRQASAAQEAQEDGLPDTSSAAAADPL

HepG2 = experiment: Antiproliferative activity against human HepG2 cells measured after 72 hrs by MTT assay; format: functional, cell-based; settings: HepG2, 72 h
HT-29 = experiment: Antiproliferative activity against human HT-29 cells measured after 72 hrs by MTT assay; format: functional, cell-based; settings: HT-29, 72 h
MDA-MB-231 = experiment: Antiproliferative activity against human MDA-MB-231 cells measured after 72 hrs by MTT assay; format: functional, cell-based; settings: MDA-MB-231, 72 h
[2] = biological target: T2, Protein deacetylase HDAC6 (Homo sapiens, UniProt Q9UBN7); experiment: Inhibition of recombinant HDAC6 (unknown origin) using Ac-peptide-AMC as substrate preincubated for 15 mins followed by substrate addition and measured after 60 mins by fluorescence assay
T2 sequence (Q9UBN7 whole entry): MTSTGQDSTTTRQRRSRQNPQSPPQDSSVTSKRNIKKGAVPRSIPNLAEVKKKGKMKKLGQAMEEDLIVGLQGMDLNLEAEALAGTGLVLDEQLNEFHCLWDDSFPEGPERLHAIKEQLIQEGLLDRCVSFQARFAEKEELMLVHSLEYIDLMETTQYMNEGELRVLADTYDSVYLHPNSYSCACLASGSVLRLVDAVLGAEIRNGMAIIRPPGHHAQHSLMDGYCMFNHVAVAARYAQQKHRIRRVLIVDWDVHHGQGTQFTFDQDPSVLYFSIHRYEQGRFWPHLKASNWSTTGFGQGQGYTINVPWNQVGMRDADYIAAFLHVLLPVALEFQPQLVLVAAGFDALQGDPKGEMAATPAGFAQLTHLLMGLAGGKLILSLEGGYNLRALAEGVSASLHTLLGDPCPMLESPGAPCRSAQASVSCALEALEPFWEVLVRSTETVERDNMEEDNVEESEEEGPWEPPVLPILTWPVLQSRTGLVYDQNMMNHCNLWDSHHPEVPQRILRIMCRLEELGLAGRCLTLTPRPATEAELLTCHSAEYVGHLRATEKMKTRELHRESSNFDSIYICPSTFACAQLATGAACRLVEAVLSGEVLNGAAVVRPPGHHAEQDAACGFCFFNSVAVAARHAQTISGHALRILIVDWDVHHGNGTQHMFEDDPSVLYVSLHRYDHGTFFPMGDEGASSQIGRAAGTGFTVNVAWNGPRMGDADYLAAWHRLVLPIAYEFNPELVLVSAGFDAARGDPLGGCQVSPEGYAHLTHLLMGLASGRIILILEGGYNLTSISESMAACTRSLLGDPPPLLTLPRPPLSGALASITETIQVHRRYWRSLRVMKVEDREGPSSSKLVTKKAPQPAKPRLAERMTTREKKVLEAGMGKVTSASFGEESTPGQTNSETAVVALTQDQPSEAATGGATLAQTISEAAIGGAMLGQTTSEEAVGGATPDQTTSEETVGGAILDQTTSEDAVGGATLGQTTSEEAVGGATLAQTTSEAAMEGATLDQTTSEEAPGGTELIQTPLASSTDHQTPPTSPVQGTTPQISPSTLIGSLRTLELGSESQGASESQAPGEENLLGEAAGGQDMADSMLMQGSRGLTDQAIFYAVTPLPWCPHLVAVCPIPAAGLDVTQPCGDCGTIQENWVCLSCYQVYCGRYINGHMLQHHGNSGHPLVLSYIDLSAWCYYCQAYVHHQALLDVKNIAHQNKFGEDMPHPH

[3] = Cytotoxicity against human HL7702 cells measured after 72 hrs by MTT assay; settings: HL7702 (L02) cells
HeLa = experiment: Antiproliferative activity against human HeLa cells measured after 72 hrs by MTT assay; format: functional, cell-based
A-431 = experiment: Antiproliferative activity against human A-431 cells measured after 72 hrs by MTT assay; format: functional, cell-based; settings: A-431, 72 h
HCT-116 = experiment: Antiproliferative activity against human HCT-116 cells measured after 72 hrs by MTT assay; format: functional, cell-based; settings: HCT-116, 72 h
K562 = experiment: Antiproliferative activity against human K562 cells measured after 72 hrs by MTT assay; format: functional, cell-based; settings: K562, 72 h
[4] = Half life in rat liver microsomes at 1 uM by LC-MS/MS analysis; format: ADME, Microsome
[5] = Intrinsic clearance in rat liver microsomes at 1 uM by LC-MS/MS analysis; format: ADME, Microsome; settings: read-out: CLH

Row | SMILES | IC50 (Histone deacetylase 1) [µM] | IC50 [1] [µM] | IC50 (HepG2) [µM] | IC50 (HT-29) [µM] | IC50 (MDA-MB-231) [µM] | IC50 [2] [µM] | IC50 at 72 h [3] [µM] | IC50 (HeLa) [µM] | IC50 (A-431) [µM] | IC50 (HCT-116) [µM] | IC50 (K562) [µM] | half-life at 1 µM [4] [min] | CLint scaled at 1 µM [5] [mL/min/kg]
1 | COc1cc2nc(N3CCN(Cc4ccc(/C=C/C(=O)NO)cc4)CC3)nc(NC3CCN(Cc4ccccc4)CC3)c2cc1OC | 0.094 | 0.19 | > 50 | > 50 | > 50 | 0.05 | > 50 | > 50 | > 50 | > 50 | > 50 |  | 
2 | COc1cc2nc(N3CCN(CCCCCC(=O)NO)CC3)nc(NC3CCN(C(C)C)CC3)c2cc1OC | 0.051 | 0.0016 | 12.1 | 8 | > 50 | 0.024 | > 50 | 29.7 | > 50 | > 50 | 10.1 |  | 
3 | COc1cc2c(NC3CCN(C(C)C)CC3)nc(N3CCC(F)(F)CC3)nc2cc1OCCCN1CCCC1 |  |  | 2.69 | 1.35 | 3.23 |  | 3.23 | 1.74 | 3.38 | 5.01 | 0.92 |  | 
4 | O=C(c1ccc(F)cc1)C1CCN(CCn2c(=O)[nH]c3ccccc3c2=O)CC1 [KETANSERIN] |  |  |  |  |  |  |  |  |  |  |  | 16.2 | 153
5 | COc1cc2nc(NCCCCCC(=O)NO)nc(NC3CCN(C(C)C)CC3)c2cc1OC | 0.0084 | 0.097 | > 50 | 47.4 | > 50 | 0.131 | > 50 | 37.4 | > 50 | 25.7 | > 50 |  | 
6 | COc1cc2nc(NCCCCCCC(=O)NO)nc(NC3CCN(C)CC3)c2cc1OC | 0.0058 | 0.021 | 6.76 | 12.9 | > 50 | 0.016 | > 50 | 9.49 | > 50 | > 50 | 17 |  | 
7 | COc1cc2nc(NCCCCCCC(=O)NO)nc(NC3CCN(C(C)C)CC3)c2cc1OC | 0.0042 | 0.011 | 4.72 | 4.21 | > 50 | 0.012 | 12.7 | 17.4 | 23.1 | 3.75 | 5.21 |  | 
8 | COc1cc2nc(NCCCCCC(=O)NO)nc(NC3CCN(C)CC3)c2cc1OC | 0.0013 | 0.011 | 13.4 | 5.31 | 44.2 | 0.051 | 31.7 | 6.39 | 5.86 | 6.93 | 9.21 |  | 
9 | COc1cc2nc(NCCCCCC(=O)NO)nc(NC3CCN(Cc4ccccc4)CC3)c2cc1OC | 0.0032 | 0.0092 | 2.13 | 12.9 | 7.89 | 0.017 | 19.8 | 8.85 | 16.9 | 44.5 | 7.89 |  | 
